From patent US12473301B2, “Isoquinoline compounds for the treatment of cancer” (Genentech, Inc., priority 2018, dated 2025)

Each compound was assayed against HPK1 (Homo sapiens (Human), UniProt Q92918, S171E/T165E) (assay: HPK1-FL HTRF Enzymatic Assay ("HTRF")). Conditions: HPK full length, ATP 1 mM.
Format: biochemical
Experimental: HPK1-FL HTRF Enzymatic Assay (“HTRF”)
HPK-FL enzyme phosphorylates Biotin-SLP-76 substrate in the presence of ATP at 1 mM and varying concentrations of test compound. Product is detected by FRET using Eu-anti-pSLP76 Ab and SA-XL665. Also see www.cisbio.com/HTRF for additional HTRF technology information.
Instrumentation: Echo555 compound dispenser; Agilent Bravo; Perkin Elmer Envision.
To a 384 well Proxiplate with 80 nL compound or DMSO spotted on was added 4 μl/well kinase mix. The mixture was preincubated for 30 minutes and then 4 μl/well substrate mix was added. The solution was incubated for 60 min and then 4 μl/well detection mix was added. The solution was incubated for another 60 min. The plates were then loaded onto a
Perkin Elmer Envision and the TR-FRET signal was measured at […] and 665 nm. A ratio of 665/620 was used to calculate the % activity at each concentration of compound.

Chain of HPK1 (Q92918 whole entry T165E/S171E): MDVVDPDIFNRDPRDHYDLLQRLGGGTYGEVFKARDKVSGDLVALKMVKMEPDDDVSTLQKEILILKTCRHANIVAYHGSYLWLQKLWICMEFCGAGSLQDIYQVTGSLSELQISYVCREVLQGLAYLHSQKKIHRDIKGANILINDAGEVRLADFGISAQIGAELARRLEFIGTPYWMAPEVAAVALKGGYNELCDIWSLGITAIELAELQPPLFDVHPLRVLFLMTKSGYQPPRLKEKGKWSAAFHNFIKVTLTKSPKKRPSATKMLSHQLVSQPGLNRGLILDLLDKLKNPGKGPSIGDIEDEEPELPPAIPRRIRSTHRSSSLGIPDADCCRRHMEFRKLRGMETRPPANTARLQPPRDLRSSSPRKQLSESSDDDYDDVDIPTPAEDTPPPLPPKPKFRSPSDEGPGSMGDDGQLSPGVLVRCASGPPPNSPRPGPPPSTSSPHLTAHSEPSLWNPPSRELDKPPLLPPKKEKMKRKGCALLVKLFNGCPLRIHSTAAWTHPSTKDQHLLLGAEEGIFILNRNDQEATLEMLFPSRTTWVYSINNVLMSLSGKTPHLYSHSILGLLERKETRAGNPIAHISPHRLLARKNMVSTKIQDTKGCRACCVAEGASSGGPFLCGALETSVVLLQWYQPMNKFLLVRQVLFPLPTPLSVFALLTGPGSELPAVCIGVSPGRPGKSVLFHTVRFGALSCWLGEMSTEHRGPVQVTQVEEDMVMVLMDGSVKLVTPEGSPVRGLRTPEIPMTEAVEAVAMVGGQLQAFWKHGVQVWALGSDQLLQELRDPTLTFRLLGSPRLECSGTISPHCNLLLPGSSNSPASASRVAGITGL

In order of rising Ki:
1. Cc1c(-c2cc3cc(NC(=O)NC4CC4)ncc3cc2F)cnc2c1NCCO2 [Compound 207, 1-Cyclopropyl-3-(7-fluoro-6-(8-methyl-2,3-dihydro-1H-pyrido[2,3-b][1,4]oxazin-7-yl)isoquinolin-3-yl)urea]  0.2 nM
2. Cc1c(-c2cc3cc(NC(=O)OC4CC5(CNC5)C4)ncc3cc2F)cnc2c1NCCO2 [Compound 125, 2-Azaspiro[3.3]heptan-6-yl (7-fluoro-6-(8-methyl-2,3-dihydro-1H-pyrido[2,3-b][1,4]oxazin-7-yl)isoquinolin-3-yl)carbamate]  0.34 nM
3. Cc1c(-c2cc3cc(NC(=O)OCCC4C5CNCC45)ncc3cc2F)cnc2c1NCCO2 (stereo not shown) [Compound 124, 2-(3-Azabicyclo[3.1.0]hexan-6-yl)ethyl (7-fluoro-6-(8-methyl-2,3-dihydro-1H-pyrido[2,3-b][1,4]oxazin-7-yl)isoquinolin-3-yl)carbamate]  0.44 nM
4. Cc1c(-c2cc3cc(NC(=O)OC4CC5(CCNC5)C4)ncc3cc2F)cnc2c1NCCO2 (stereo not shown) [Compound 134, 6-Azaspiro[3.4]octan-2-yl (7-fluoro-6-(8-methyl-2,3-dihydro-1H-pyrido[2,3-b][1,4]oxazin-7-yl)isoquinolin-3-yl)carbamate]  0.47 nM
5. Cc1c(-c2cc3cc(NC(=O)NCC4CC4)ncc3cc2F)cnc2c1NCCO2 [Compound 202, 1-(Cyclopropylmethyl)-3-(7-fluoro-6-(8-methyl-2,3-dihydro-1H-pyrido[2,3-b][1,4]oxazin-7-yl)isoquinolin-3-yl)urea]  0.5 nM
6. Cc1c(-c2cc3cc(NC(=O)O[C@H]4[C@@H]5CNC[C@@H]54)ncc3cc2F)cnc2c1NCCO2 [Compound 129a, (1R,5S,6s)-3-Azabicyclo[3.1.0]hexan-6-yl (7-fluoro-6-(8-methyl-2,3-dihydro-1H-pyrido[2,3-b][1,4]oxazin-7-yl)isoquinolin-3-yl)carbamate]  0.58 nM
7. Cc1c(-c2cc3cc(NC(=O)NC4CNC4)ncc3cc2F)cnc2c1NCCO2 [Compound 205, 1-(Azetidin-3-yl)-3-(7-fluoro-6-(8-methyl-2,3-dihydro-1H-pyrido[2,3-b][1,4]oxazin-7-yl)isoquinolin-3-yl)urea]  0.76 nM
8. Cc1c(-c2cc3cc(NC(=O)NC4CCOCC4)ncc3cc2F)cnc2c1NCCO2 [Compound 204, 1-(7-Fluoro-6-(8-methyl-2,3-dihydro-1H-pyrido[2,3-b][1,4]oxazin-7-yl)isoquinolin-3-yl)-3-(tetrahydro-2H-pyran-4-yl)urea]  0.83 nM
9. Cc1c(-c2cc3cc(NC(=O)OC4CC5(CCN(C)CC5)C4)ncc3cc2F)cnc2c1NCCC2 [Compound 133, 7-Methyl-7-azaspiro[3.5]nonan-2-yl (7-fluoro-6-(4-methyl-5,6,7,8-tetrahydro-1,5-naphthyridin-3-yl)isoquinolin-3-yl)carbamate]  1.07 nM
10. Cc1c(-c2cc3cc(NC(=O)OC4CC5(C4)CN(C)C5)ncc3cc2F)cnc2c1NCCC2 [Compound 132, 2-Methyl-2-azaspiro[3.3]heptan-6-yl (7-fluoro-6-(4-methyl-5,6,7,8-tetrahydro-1,5-naphthyridin-3-yl)isoquinolin-3-yl)carbamate]  1.15 nM
11. Cc1c(-c2cc3cc(NC(=O)OC4CS(=O)(=O)C4)ncc3cc2F)cnc2c1NCCO2 [Compound 130, 1,1-Dioxidothientan-3-yl (7-fluoro-6-(8-methyl-2,3-dihydro-1H-pyrido[2,3-b][1,4]oxazin-7-yl)isoquinolin-3-yl)carbamate]  4.1 nM
12. Cc1c(-c2cc3cc(NC(=O)OCC(C)(C)C)ncc3cc2F)cnc2c1NCCO2 [Compound 120, Neopentyl (7-fluoro-6-(8-methyl-2,3-dihydro-1H-pyrido[2,3-b][1,4]oxazin-7-yl)isoquinolin-3-yl)carbamate]  4.3 nM
13. Cc1c(-c2cc3cc(NC(=O)OCCS(C)(=O)=O)ncc3cc2F)cnc2c1NCCO2 [Compound 117, 2-(Methylsulfonyl)ethyl (7-fluoro-6-(8-methyl-2,3-dihydro-1H-pyrido[2,3-b][1,4]oxazin-7-yl)isoquinolin-3-yl)carbamate]  6.2 nM
14. Cc1c(-c2cc3cc(NC(=O)OC4CC5CC4CN5)ncc3cc2F)cnc2c1NCCO2 (stereo not shown) [Compound 121, 2-Azabicyclo[2.2.1]heptan-5-yl (7-fluoro-6-(8-methyl-2,3-dihydro-1H-pyrido[2,3-b][1,4]oxazin-7-yl)isoquinolin-3-yl)carbamate]  8.7 nM
15. Cc1c(-c2cc3cc(NC(=O)OCCc4ccccn4)ncc3cc2F)cnc2c1NCCO2 [Compound 119, 2-(Pyridin-2-yl)ethyl (7-fluoro-6-(8-methyl-2,3-dihydro-1H-pyrido[2,3-b][1,4]oxazin-7-yl)isoquinolin-3-yl)carbamate]  9.5 nM
16. Cc1c(-c2cc3cc(NC(=O)OCCN)ncc3cc2F)cnc2c1NCCO2 [Compound 112, 2-Aminoethyl (7-fluoro-6-(8-methyl-2,3-dihydro-1H-pyrido[2,3-b][1,4]oxazin-7-yl)isoquinolin-3-yl)carbamate]  32 nM
17. Cc1c(-c2cc3cc(NC(=O)OCC(F)(F)F)ncc3cc2F)cnc2c1NCCO2 [Compound 118, 2,2,2-Trifluoroethyl (7-fluoro-6-(8-methyl-2,3-dihydro-1H-pyrido[2,3-b][1,4]oxazin-7-yl)isoquinolin-3-yl)carbamate]  205 nM
18. CC[C@@H]1[C@H](C(=O)Nc2cc3cc(-c4c[n+]([O-])ccc4C)c(F)cc3cn2)[C@H]1c1cnn(C)c1 [Compound 302a, 3-(3-((1S,2S,3S)-2-Ethyl-3-(1-methyl-1H-pyrazol-4-yl)cyclopropane-1-carboxamido)-7-fluoroisoquinolin-6-yl)-4-methylpyridine 1-oxide]  1280 nM
19. CC[C@H]1[C@H](C(=O)Nc2cc3cc(-c4c[n+]([O-])ccc4C)c(F)cc3cn2)[C@H]1c1cnn(C)c1 [Compound 302b, 3-(3-((1S,2R,3S)-2-Ethyl-3-(1-methyl-1H-pyrazol-4-yl)cyclopropane-1-carboxamido)-7-fluoroisoquinolin-6-yl)-4-methylpyridine 1-oxide]  2000 nM
